Structures are written as SMILES.

The values below come from patent US4950466A, “Reduction of the severity of 3'-azido-3'-deoxythymidine-induced anemia using a combination of benzylacyclouridine and dipyridamole” (priority 1988, dated 1990).

Data set [1] is described as follows: Blood counts (hemoglobin, hematocrit, white blood cells) in mice receiving AZT, BAU and/or DPR; pooled blood, Coulter Counter. It is filed as in vivo, Female Balb/c mice. Set-up: Hb (hemoglobin) / Hct (hematocrit): unit not given here. The procedure: For oral administration, BAU was dissolved in water to achieve a final concentration of 0.3 mg/mL. For intraperitoneal administration, BAU was dissolved in dimethylsulfoxide (DMSO) to achieve final concentrations of 60, 100, or 120 mg/mL.
The solution was centrifuged at 15,000 rpm for 20 minutes.
(§1) Female Balb/c mice, 6-12 weeks old, were purchased from the Animal Care Facility of the Roger Williams Cancer Center. The animals were randomly divided into eight groups. Six of the treatment protocols were performed in duplicate. Each group contained either eight or nine animals. The animals were weighed once weekly. Food and water was available ad libitum. Blood samples were obtained from the tail vein. The first blood sample was obtained on Day 0 and subsequent samples were obtained on Days 19, 27, 34 and 44, 48, 54 and 68 after the initiation of drug treatment. With each sampling, approximately 100 ul of blood was removed from each animal. The blood obtained from the animals in each group was pooled and analyzed by Coulter Counter. On each sample, hemoglobin, hematocrit, and white blood cell count were determined. The mean red cell volume was calculated. The Treatment Groups were as follows:
DMSO was given ip, 0.O1 mL/5 grams body weight, once weekly.
Group 4--BAU 240 mg/kg, ip, once weekly.
This corresponds to a daily administered dose of 43 mg/kg.
The concentration was 0.69 mg/ml which corresponds to an administered dose of 100 mg/kg/day.

In data set [2] the test system is uridine phosphorylase. As to conditions: cited from earlier work.
A short description of data set [3]: Oral bioavailability of BAU. As to conditions: in vivo, 43 mg/kg, drinking water, read-out: bioavailability of BAU administered orally. The procedure:
Group 7--AZT administered in the drinking water (1 mg/mL) and BAU administered in the same container of drinking water (0.3 mg/mL). This corresponds to a daily administered dose of 43 mg/kg. The bioavailability of BAU administered orally was 80%. Therefore, the bioavailable dose of BAU administered to this group was 240 mg/kg/week.

For data set [4] the following is noted: human, in vivo; cited from earlier work.
The subject of data set [5] is human bone marrow progenitor (HBMP) cells. As to conditions: in vitro; cited from earlier work.
Data set [6] deals with human immunodifficiency virus reverse transcriptase. As to conditions: cited from earlier work.
Data set [7] is described as follows: Weekly body weight of treated mice. It is filed as in vivo, Female Balb/c mice. As to conditions: measured each week. The protocol:
as §1
Body weights of the animals in the treatment groups were measured each week.

For data set [8], the system named is granulocyte macrophage colony forming cells. As to conditions: in vitro; cited from earlier work.
Data set [9] has as its system erythroid burst-forming cells. As to conditions: in vitro; cited from earlier work.
Setting [10] is: Day 0, AZT 1 mg/mL and/or DPR 0.69 mg/mL in drinking water, no BAU (Groups 3, 8, 9).
[11] abbreviates: Day 19, AZT 1 mg/mL and/or DPR 0.69 mg/mL in drinking water, no BAU (Groups 3, 8, 9).
Setting [12] is: Day 27, AZT 1 mg/mL and/or DPR 0.69 mg/mL in drinking water, no BAU (Groups 3, 8, 9).
The mark [13] stands for this setting: Day 34, AZT 1 mg/mL and/or DPR 0.69 mg/mL in drinking water, no BAU (Groups 3, 8, 9).
Setting [14] is: Day 44, DPR 0.69 mg/mL with or without AZT 1 mg/mL in drinking water (Groups 8, 9).
The mark [15] stands for this setting: Day 54, DPR 0.69 mg/mL with or without AZT 1 mg/mL in drinking water (Groups 8, 9).
[16] abbreviates: Day 68, DPR 0.69 mg/mL with or without AZT 1 mg/mL in drinking water (Groups 8, 9).
Where [17] appears, read: Day 0, BAU 240 mg/kg ip once weekly, without (Group 4) or with (Group 5) AZT 1 mg/mL in drinking water.
The mark [18] stands for this setting: Day 19, BAU 240 mg/kg ip once weekly, without (Group 4) or with (Group 5) AZT 1 mg/mL in drinking water.
[19] abbreviates: Day 27, BAU 240 mg/kg ip once weekly, without (Group 4) or with (Group 5) AZT 1 mg/mL in drinking water.
The mark [20] stands for this setting: Day 34, BAU 240 mg/kg ip once weekly, without (Group 4) or with (Group 5) AZT 1 mg/mL in drinking water.
Where [21] appears, read: Day 48, BAU 240 mg/kg ip once weekly, without (Group 4) or with (Group 5) AZT 1 mg/mL in drinking water.
[22] abbreviates: Day 0, AZT 1 mg/mL in drinking water (145 mg/kg/day) + DMSO ip once weekly (Group 2).
The mark [23] stands for this setting: Day 19, AZT 1 mg/mL in drinking water (145 mg/kg/day) + DMSO ip once weekly (Group 2).
Setting [24] is: Day 27, AZT 1 mg/mL in drinking water (145 mg/kg/day) + DMSO ip once weekly (Group 2).
Setting [25] is: Day 34, AZT 1 mg/mL in drinking water (145 mg/kg/day) + DMSO ip once weekly (Group 2).
Where [26] appears, read: Day 48, AZT 1 mg/mL in drinking water (145 mg/kg/day) + DMSO ip once weekly (Group 2).
[27] abbreviates: Day 48, AZT 1 mg/mL in drinking water (Group 3).

Turning to `OCCN(CCO)c1nc(N2CCCCC2)c2nc(N(CCO)CCO)nc(N3CCCCC3)c2n1` [DPR, 2,2',2"2'"-(4,8-dipiperidinopyimidol[5,4-d]pyrimidene-2,6-diyldinitrilo) tetraethanol], the “Hb (hemoglobin)” value in data set [1] (setting [10]) turned out to be 16.5; in data set [1] (setting [11]) it was 14.3; in data set [1] (setting [12]), 15.5; in [1] (setting [13]), 14.8; in data set [1] (setting [14]), 14.6; in data set [1] (setting [15]) it was 15.4. Moreover, the “Hb (hemoglobin)” value in data set [1] (setting [16]) is listed as 15.7. Moreover, the “Hct (hematocrit)” value in data set [1] (setting [10]) was determined as 48.0; in [1] (setting [11]), 49; in [1] (setting [12]), 45; in data set [1] (setting [13]), 45; in data set [1] (setting [14]), 45; in data set [1] (setting [15]), 46. Further, the “Hct (hematocrit)” value in [1] (setting [16]) is listed as 45. For the same molecule, the “WBC (white blood cell count)” value in data set [1] (setting [10]) is given as 5.9; in data set [1] (setting [11]), 11.1; in [1] (setting [12]) it was 10; in data set [1] (setting [13]), 9.4; in data set [1] (setting [14]) it was 9.1; in data set [1] (setting [15]) it was 7.6. The “WBC (white blood cell count)” value in [1] (setting [16]) came out at 9.3.
By bioavailability is commonly meant dose-corrected exposure relative to a reference, in per cent. With `O=c1[nH]c(=O)n(COCCO)cc1Cc1ccccc1` [BAU, 5-benzylacyclouridine], the “inhibition of cleavage of 5-fluoro-2'-deoxyuridine” value in data set [2] is given as “inhibits the cleavage of the antineoplastic 5-fluoro-2'-deoxyuridine”. Moreover, in [2] (cleavage of uridine to uracil), the “inhibition of uridine phosphorylase” value is on record as “inhibitor of the enzyme uridine phosphorylase”. Further, the bioavailability in [3] was determined as 80%. Moreover, the “Hb (hemoglobin)” value in data set [1] (setting [17]) worked out at 18.3; in data set [1] (setting [18]), 17.3; in [1] (setting [19]) it was 16.2; in [1] (setting [20]) it was 17.2; in data set [1] (setting [21]), 16.6. Also, the “Hct (hematocrit)” value is on record as 52.0 in data set [1] (setting [17]); 50.0 in data set [1] (setting [18]); 51 in [1] (setting [19]); 50 in [1] (setting [20]); 49 in [1] (setting [21]). Also, the “WBC (white blood cell count)” value in data set [1] (setting [17]) was 8.8; in data set [1] (setting [18]) it was 10.8; in data set [1] (setting [19]) it was 6.6; in data set [1] (setting [20]), 7.9; in [1] (setting [21]) it was 6.4.
As for `O=c1ccn([C@@H]2O[C@H](CO)[C@@H](O)[C@H]2O)c(=O)[nH]1` [uridine], in data set [4], the body temperature result is “rapid and potentially dangerous rises in body temperature”; the “elimination from the plasma” value is reported as “rapidly eliminated from the plasma”. For the same molecule, the “reversal of toxic effect of AZT in HBMP cells” value in data set [5] was “could reverse the toxic effect of AZT in HBMP cells”.
For `Cc1cn([C@H]2C[C@H](N=[N+]=[N-])[C@@H](CO)O2)c(=O)[nH]c1=O` [AZT, 3'-Azido-3'-deoxythymidine], the “inhibition of HIV reverse transcriptase” value in data set [6] is listed as “inhibits the human immunodifficiency virus reverse transcriptase”. For the same molecule, the “body weight over time” value in data set [7] was “tended to lose weight as their anemia increased over time”. Besides, the “inhibition of granulocyte macrophage colony forming cells” value in data set [8] is “consistently inhibit granulocyte macrophage colony forming cells and erythroid burst-forming cells in dose-dependent fashion”. Further, the “inhibition of erythroid burst-forming cells” value in data set [9] is “consistently inhibit granulocyte macrophage colony forming cells and erythroid burst-forming cells in dose-dependent fashion”. The “Hb (hemoglobin)” value was found to be 17.3 in data set [1] (setting [10]); 17.3 in data set [1] (setting [22]); 13.7 in [1] (setting [11]); 12.8 in data set [1] (setting [23]); 13.6 in [1] (setting [12]); 13 in [1] (setting [24]). The “Hb (hemoglobin)” value in data set [1] (setting [13]) worked out at 13.9; in data set [1] (setting [25]) it was 11.6; in [1] (setting [26]), 11.0; in [1] (setting [27]), 13.2. Besides, the “Hct (hematocrit)” value was determined as 43.0 in data set [1] (setting [10]); 49.0 in data set [1] (setting [22]); 43.0 in data set [1] (setting [11]); 36.0 in data set [1] (setting [23]); 43 in [1] (setting [12]); 40 in [1] (setting [24]). The “Hct (hematocrit)” value in data set [1] (setting [13]) worked out at 42; in data set [1] (setting [25]) it was 35; in data set [1] (setting [26]), 33; in data set [1] (setting [27]) it was 34. The “WBC (white blood cell count)” value in data set [1] (setting [10]) is listed as 8.4; in [1] (setting [22]) it was 10.1; in data set [1] (setting [23]), 21.2; in data set [1] (setting [12]), 13.6; in [1] (setting [24]), 11.6; in [1] (setting [13]), 13.3. Also, the “WBC (white blood cell count)” value in [1] (setting [25]) came to 11.5; in data set [1] (setting [26]), 5.0; in [1] (setting [27]), 5.6. For the same molecule, in data set [1] (mice), the “nature of anemia produced in mice” value is “typical of AZT induced anemia in humans”.
On to `Nc1ccn([C@@H]2O[C@H](CO)[C@@H](O)[C@H]2O)c(=O)n1` [cytidine], for which, in data set [5], the “reversal of toxic effect of AZT in HBMP cells” value was “could reverse the toxic effect of AZT in HBMP cells”.
